We go through 14 compounds from patent publication US11186564B2, “Dual NAV1.2/5HT2a inhibitors for treating CNS disorders” (Sunovion Pharmaceuticals Inc., priority 2016, dated 2021).

Read-outs that look alike come from different tables or passages of the source.

Test [1] concerns the target human sodium channel NaV1.2 (Homo sapiens, UniProt Q99250). The experiment in a line: NaV1.2 inhibition, automated patch-clamp (Q-Patch HTX), slow inactivated state (state C). It counts as cell-based. The note with it: for IC50: read-out: NaV1.2 IC50; for inhibition at 10 µM: read-out: NaV1.2 (% inh), 10 μM; for inhibition at 1 µM: 1 μM compound, read-out: NaV1.2 (% inh), 1 μM. The essentials:
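CHO K-1 cells stably expressing human NaV1.2, whole-cell automated patch clamp, holding −100 mV; slow-inactivated state (state C) read at a 5 ms step to 0 mV after 10 s at −50 mV and 15 ms at −90 mV. Percent inhibition vs vehicle; IC50 by nonlinear least-squares fit.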
In general terms: In patch-clamp work, channel activity is measured electrically.

The target of test [2] is T1, recombinant human serotonin receptor 5-HT2A (Homo sapiens, UniProt P28223).
T1 construct: expressed in transfected cells; method B: loaded with Ca2+ dye
The experiment in a line: 5-HT2A antagonist Ca2+ assay in CHO-K1 cells (method A aequorin luminescence / method B FLIPR fluorescence). The following applies: antagonist mode vs EC80 of reference agonist, method A or B. The test is classed as cell-based. The essentials:
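Method A: CHO-K1 cells co-expressing human 5-HT2A and mitochondrial apoaequorin were given reference agonist at EC80 15 min after compound, with luminescence read. Method B: dye-loaded 5-HT2A CHO-K1 cells were pretreated with compound, then given serotonin at EC80, with FLIPR fluorescence read. IC50s came from nonlinear fits of percent inhibition.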

Where [3] appears, read: hNaV1.2 CHO cells, slow inactivated state.

human sodium channel NaV1.2, sequence (Q99250 whole entry): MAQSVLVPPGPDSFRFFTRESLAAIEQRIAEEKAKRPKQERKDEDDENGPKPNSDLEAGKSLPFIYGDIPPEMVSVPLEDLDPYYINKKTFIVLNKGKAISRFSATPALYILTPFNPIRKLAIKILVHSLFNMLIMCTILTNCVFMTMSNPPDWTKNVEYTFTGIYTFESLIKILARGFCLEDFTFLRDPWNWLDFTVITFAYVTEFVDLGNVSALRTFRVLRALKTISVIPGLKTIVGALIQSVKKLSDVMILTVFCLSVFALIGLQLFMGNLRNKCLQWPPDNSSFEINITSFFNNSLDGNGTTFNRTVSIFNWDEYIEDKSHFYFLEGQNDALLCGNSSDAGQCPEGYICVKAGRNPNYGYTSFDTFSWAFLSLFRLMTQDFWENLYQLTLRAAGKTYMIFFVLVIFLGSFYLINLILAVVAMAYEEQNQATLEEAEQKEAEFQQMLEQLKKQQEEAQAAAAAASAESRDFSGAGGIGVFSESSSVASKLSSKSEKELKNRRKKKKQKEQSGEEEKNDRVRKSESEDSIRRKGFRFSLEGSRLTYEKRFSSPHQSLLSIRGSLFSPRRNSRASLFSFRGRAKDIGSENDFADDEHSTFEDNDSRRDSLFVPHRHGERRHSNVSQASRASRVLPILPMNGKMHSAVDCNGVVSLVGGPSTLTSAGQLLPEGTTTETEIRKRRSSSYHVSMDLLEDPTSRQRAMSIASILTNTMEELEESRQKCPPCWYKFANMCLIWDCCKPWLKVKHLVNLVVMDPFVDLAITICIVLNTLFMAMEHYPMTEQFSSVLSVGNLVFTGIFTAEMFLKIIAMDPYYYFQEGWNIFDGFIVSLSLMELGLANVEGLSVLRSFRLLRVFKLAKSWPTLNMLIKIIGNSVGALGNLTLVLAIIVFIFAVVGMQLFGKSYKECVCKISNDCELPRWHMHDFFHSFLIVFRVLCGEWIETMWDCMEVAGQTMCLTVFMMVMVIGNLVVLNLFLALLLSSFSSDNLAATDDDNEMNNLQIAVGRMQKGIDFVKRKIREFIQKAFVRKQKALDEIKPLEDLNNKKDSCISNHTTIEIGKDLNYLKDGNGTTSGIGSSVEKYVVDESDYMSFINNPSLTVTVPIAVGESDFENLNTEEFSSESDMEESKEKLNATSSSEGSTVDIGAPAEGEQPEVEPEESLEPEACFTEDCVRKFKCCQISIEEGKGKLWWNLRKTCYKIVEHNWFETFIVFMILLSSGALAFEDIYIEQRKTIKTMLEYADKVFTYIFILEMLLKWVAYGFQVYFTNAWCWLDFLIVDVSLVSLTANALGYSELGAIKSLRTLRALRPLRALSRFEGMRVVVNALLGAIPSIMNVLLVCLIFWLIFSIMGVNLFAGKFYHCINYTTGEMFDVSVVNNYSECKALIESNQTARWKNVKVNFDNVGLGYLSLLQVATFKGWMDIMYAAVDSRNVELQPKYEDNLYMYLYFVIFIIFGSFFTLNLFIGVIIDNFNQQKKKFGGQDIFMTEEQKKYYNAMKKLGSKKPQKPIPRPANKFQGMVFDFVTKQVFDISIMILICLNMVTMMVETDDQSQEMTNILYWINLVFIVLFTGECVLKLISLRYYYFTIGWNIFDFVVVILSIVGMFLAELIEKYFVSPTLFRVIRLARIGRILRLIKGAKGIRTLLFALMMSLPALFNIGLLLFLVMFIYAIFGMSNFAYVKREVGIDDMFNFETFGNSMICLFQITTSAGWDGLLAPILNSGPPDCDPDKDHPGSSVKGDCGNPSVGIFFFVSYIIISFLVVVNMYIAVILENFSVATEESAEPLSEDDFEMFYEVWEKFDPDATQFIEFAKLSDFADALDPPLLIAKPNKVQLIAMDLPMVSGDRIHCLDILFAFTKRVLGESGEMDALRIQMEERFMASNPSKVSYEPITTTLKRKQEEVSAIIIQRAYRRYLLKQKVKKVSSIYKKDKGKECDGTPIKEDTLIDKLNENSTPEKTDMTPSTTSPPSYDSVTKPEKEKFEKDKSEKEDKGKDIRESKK
T1 sequence (P28223 whole entry): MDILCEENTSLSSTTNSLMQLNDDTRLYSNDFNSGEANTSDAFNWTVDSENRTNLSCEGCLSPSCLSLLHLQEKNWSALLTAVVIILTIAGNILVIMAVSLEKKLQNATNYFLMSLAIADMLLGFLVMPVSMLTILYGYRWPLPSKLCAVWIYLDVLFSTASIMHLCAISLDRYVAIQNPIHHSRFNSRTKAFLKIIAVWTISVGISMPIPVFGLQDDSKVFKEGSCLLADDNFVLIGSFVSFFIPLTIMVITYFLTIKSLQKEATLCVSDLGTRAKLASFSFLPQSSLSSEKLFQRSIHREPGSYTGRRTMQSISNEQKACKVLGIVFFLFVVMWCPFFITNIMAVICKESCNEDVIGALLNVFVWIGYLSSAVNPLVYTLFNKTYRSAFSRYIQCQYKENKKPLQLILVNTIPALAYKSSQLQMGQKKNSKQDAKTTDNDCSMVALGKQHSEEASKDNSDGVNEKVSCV

Usually IC50 stands for the concentration that gives 50% inhibition. Regarding `COc1ccc2c(c1)C(CN1CCC3(CC1)OCc1ccccc13)CC2` (stereo not shown) [Example 390, 1′-((6-methoxy-2,3-dihydro-1H-inden-1-yl)methyl)-3H-spiro[isobenzofuran-1,4′-piperidine]], the IC50 in test [1] (setting [3]) was 590 nM; in test [2] (read-out: 5HT2A IC50), 0.75 µM.
For the compound `OC(COC1CCCCC1)CN1CCC2(CC1)OCc1ccccc12` (stereo not shown) [Example 393, 1′-(cyclohexyloxy)-3-(3H-spiro[isobenzofuran-1,4′-piperidin]-1′-yl)propan-2-ol], in test [1] (CHO), the inhibition at 10 µM stood at 93%. For the same compound, in test [2] (5HT2A IC50, μM), the IC50 came to 1.8 µM.
In the case of `c1ccc2c(c1)CC(CN1CCC3(CC1)Cc1ccccc1O3)C2` [Example 396, 1′-((2,3-dihydro-1H-inden-2-yl)methyl)-3H-spiro[benzofuran-2,4′-piperidine]], the results for the IC50 in test [1] (setting [3]) and in test [2] (read-out: 5HT2A IC50) were 170 nM and 0.09 µM, respectively.
Take `OC(COc1ccccc1)CN1CCC2(CC1)Cc1ccccc1O2` (stereo not shown) [Example 399, 1-phenoxy-3-(3H-spiro[benzofuran-2,4′-piperidin]-1′-yl)propan-2-ol]: the inhibition at 10 µM in test [1] (10 μM compound, hNaV1.2 CHO cells, slow inactivated state) worked out at 92%. Further, in test [2] (read-out: 5HT2A IC50), the concentration for half-maximal inhibition (IC50) worked out at 1.83 µM.
For `OC(COC1CCCCC1)CN1CCC2(CCc3ccccc32)CC1` (stereo not shown) [Example 400, 1-(cyclohexyloxy)-3-(2,3-dihydrospiro[indene-1,4′-piperidin]-1′-yl)propan-2-ol], the inhibition at 10 µM in test [1] (CHO) is 102%. Further, the IC50 in test [2] (5HT2A IC50, μM) turned out to be 2.29 µM.
For `c1ccc2c(c1)CCC1(CCN(CC3CCc4ccccc43)CC1)O2` (stereo not shown) [Example 401, 1′-((2,3-dihydro-1H-inden-1-yl)methyl)spiro[chromane-2,4′-piperidine]], the figures for the IC50 in test [1] (setting [3]) and in test [2] (read-out: 5HT2A IC50) were 110 nM and 0.05 µM, respectively.
Taken in the same sequence, the figures for `COc1ccc2c(c1)C(CN1CCC3(CCc4ccccc4O3)CC1)CC2` (stereo not shown) [Example 402, 1′-((6-methoxy-2,3-dihydro-1H-inden-1-yl)methyl)spiro[chromane-2,4′-piperidine]] were 70 nM and 1.07 µM.
`c1ccc2c(c1)CCC2CN1CCC2(CCc3ncccc3O2)CC1` (stereo not shown) [Example 403, 1-((2,3-dihydro-1H-inden-1-yl)methyl)-3′,4′-dihydrospiro[piperidine-4,2′-pyrano[3,2-b]pyridine]]: the inhibition at 1 µM in test [1] (setting [3]) is -4%. Further, the IC50 in test [2] (read-out: 5HT2A IC50) stood at 0.004 µM.
In the case of `c1ccc2c(c1)CCC2CN1CCC2(CCc3cnccc3O2)CC1` (stereo not shown) [Example 404, 1-((2,3-dihydro-1H-inden-1-yl)methyl)-3′,4′-dihydrospiro[piperidine-4,2′-pyrano[3,2-c]pyridine]], the inhibition at 1 µM in test [1] (setting [3]) came to 14%. Further, the IC50 in test [2] (read-out: 5HT2A IC50) was 0.11 µM.
For `c1ccc2c(c1)CCC2CN1CCC2(CCc3ccncc3O2)CC1` (stereo not shown) [Example 405, 1-((2,3-dihydro-1H-inden-1-yl)methyl)-3′,4′-dihydrospiro[piperidine-4,2′-pyrano[2,3-c]pyridine]], in that order: 18% and 0.18 µM.
Taken in the same sequence, the figures for `c1ccc2c(c1)CCC2CN1CCC2(CCc3cccnc3O2)CC1` (stereo not shown) [Example 406, 1-((2,3-dihydro-1H-inden-1-yl)methyl)-3′,4′-dihydrospiro[piperidine-4,2′-pyrano[2,3-b]pyridine]] were 7% and 0.04 µM.
`c1ccc2c(c1)CCC1(CCN(CC3COc4ccccc43)CC1)O2` (stereo not shown) [Example 409]: the IC50 in test [1] (setting [3]) amounted to 2830 nM; in test [2] (read-out: 5HT2A IC50) it was 0.93 µM.
Taken in the same sequence, the figures for `c1ccc2c(c1)CC(CN1CCC3(CCc4ccccc4O3)CC1)C2` [Example 410, 1′-((2,3-dihydro-1H-inden-2-yl)methyl)spiro[chromane-2,4′-piperidine]] were 480 nM and 0.1 µM.
As for `c1ccc2c(c1)CCC1(CCN(CC3Cc4cccnc4C3)CC1)O2` (stereo not shown) [Example 411, 1′-((6,7-dihydro-5H-cyclopenta[b]pyridin-6-yl)methyl)spiro[chromane-2,4′-piperidine]], the inhibition at 1 µM in test [1] (setting [3]) is 37%. Besides, the IC50 in test [2] (read-out: 5HT2A IC50) is 1.2 µM.
